Measured values taken from PubChem BioAssay (NCI).
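Cultured in 96-well plates, cells were exposed to test compound for 48 hours across five concentrations. TGI: total growth inhibition.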

Assays:
Experiment in all cases: NCI anticancer screen, dose series, 48 h
[1] = system: 786-0 renal
[2] = system: A498 renal
[3] = system: A549 NSCLC
[4] = system: ACHN renal
[5] = system: BT-549 breast
[6] = system: CAKI-1 renal
[7] = system: CCRF-CEM leukemia
[8] = system: COLO 205 colon
[9] = system: DU-145 prostate
[10] = system: EKVX NSCLC
[11] = system: HCC-2998 colon
[12] = system: HCT-116 colon
[13] = system: HCT-15 colon
[14] = system: HL-60(TB) leukemia
[15] = system: HOP-92 NSCLC
[16] = system: HS 578T breast
[17] = system: HT29 colon
[18] = system: IGROV1 ovarian
[19] = system: K-562 leukemia
[20] = system: KM12 colon
[21] = system: LOX IMVI melanoma
[22] = system: M14 melanoma
[23] = system: MALME-3M melanoma
[24] = system: MCF7 breast
[25] = system: MDA-MB-231 breast
[26] = system: MDA-MB-435
[27] = system: MDA-N
[28] = system: MOLT-4 leukemia
[29] = system: NCI-H226 lung
[30] = system: NCI-H23 lung
[31] = system: NCI-H460 lung
[32] = system: NCI-H522 lung
[33] = system: NCI/ADR-RES ovarian
[34] = system: OVCAR-3 ovarian
[35] = system: OVCAR-4 ovarian
[36] = system: OVCAR-5 ovarian
[37] = system: OVCAR-8 ovarian
[38] = system: PC-3 prostate
[39] = system: RPMI-8226 leukemia
[40] = system: SF-268 CNS
[41] = system: SF-295 CNS
[42] = system: SF-539 CNS
[43] = system: SK-MEL-2 melanoma
[44] = system: SK-MEL-28 melanoma
[45] = system: SK-MEL-5 melanoma
[46] = system: SK-OV-3 ovarian
[47] = system: SN12C renal
[48] = system: SNB-19 CNS
[49] = system: SW-620 colon
[50] = system: T-47D breast
[51] = system: TK-10 renal
[52] = system: U251 CNS
[53] = system: UACC-257 melanoma
[54] = system: UACC-62 melanoma
[55] = system: UO-31 renal
[56] = system: HOP-62 NSCLC
[57] = system: SR leukemia
[58] = system: RXF 393 renal
[59] = system: SNB-75 CNS

## CC(=O)OCCn1c(Cc2ccc(Cl)cc2)nn(C(C)=O)c1=O
[1]
  TGI: > 100 µM
[2]
  TGI: > 100 µM
[3]
  TGI: > 100 µM
[4]
  TGI: > 100 µM
[5]
  TGI: > 100 µM
[6]
  TGI: > 100 µM
[7]
  TGI: > 100 µM
[8]
  TGI: > 100 µM
[9]
  TGI: > 100 µM
[10]
  TGI: > 100 µM
[11]
  TGI: > 100 µM
[12]
  TGI: > 100 µM
[13]
  TGI: > 100 µM
[14]
  TGI: > 100 µM
[15]
  TGI: > 100 µM
[16]
  TGI: > 100 µM
[17]
  TGI: > 100 µM
[18]
  TGI: > 100 µM
[19]
  TGI: > 100 µM
[20]
  TGI: > 100 µM
[21]
  TGI: > 100 µM
[22]
  TGI: > 100 µM
[23]
  TGI: > 100 µM
[24]
  TGI: > 100 µM
[25]
  TGI: > 100 µM
[26]
  TGI: > 100 µM
[27]
  TGI: > 100 µM
[28]
  TGI: > 100 µM
[29]
  TGI: > 100 µM
[30]
  TGI: > 100 µM
[31]
  TGI: > 100 µM
[32]
  TGI: > 100 µM
[33]
  TGI: > 100 µM
[34]
  TGI: > 100 µM
[35]
  TGI: > 100 µM
[36]
  TGI: > 100 µM
[37]
  TGI: > 100 µM
[38]
  TGI: > 100 µM
[39]
  TGI: > 100 µM
[40]
  TGI: > 100 µM
[41]
  TGI: > 100 µM
[42]
  TGI: > 100 µM
[43]
  TGI: > 100 µM
[44]
  TGI: > 100 µM
[45]
  TGI: > 100 µM
[46]
  TGI: > 100 µM
[47]
  TGI: > 100 µM
[48]
  TGI: > 100 µM
[49]
  TGI: > 100 µM
[50]
  TGI: > 100 µM
[51]
  TGI: > 100 µM
[52]
  TGI: > 100 µM
[53]
  TGI: > 100 µM
[54]
  TGI: > 100 µM
[55]
  TGI: > 100 µM

## COc1ccc2c(c1)SC1=Nc3sc4cc(OC)ccc4[n+]3CN12
[1]
  TGI: 82.7 µM
[3]
  TGI: > 100 µM
[4]
  TGI: > 100 µM
[5]
  TGI: > 100 µM
[6]
  TGI: > 100 µM
[7]
  TGI: > 100 µM
[8]
  TGI: 11.6 µM
[9]
  TGI: > 100 µM
[10]
  TGI: > 100 µM
[12]
  TGI: > 100 µM
[13]
  TGI: > 100 µM
[14]
  TGI: 63.5 µM
[56]
  TGI: > 100 µM
[15]
  TGI: 14.6 µM
[16]
  TGI: > 100 µM
[17]
  TGI: 56.3 µM
[18]
  TGI: > 100 µM
[19]
  TGI: > 100 µM
[20]
  TGI: 71.9 µM
[22]
  TGI: > 100 µM
[23]
  TGI: 57 µM
[24]
  TGI: 31.4 µM
[25]
  TGI: > 100 µM
[26]
  TGI: > 100 µM
[27]
  TGI: > 100 µM
[28]
  TGI: 25.1 µM
[30]
  TGI: > 100 µM
[31]
  TGI: 72.8 µM
[32]
  TGI: 8.5 µM
[33]
  TGI: > 100 µM
[34]
  TGI: 21.5 µM
[36]
  TGI: > 100 µM
[37]
  TGI: > 100 µM
[38]
  TGI: > 100 µM
[39]
  TGI: 88.4 µM
[40]
  TGI: 28.5 µM
[41]
  TGI: > 100 µM
[42]
  TGI: > 100 µM
[43]
  TGI: 65.3 µM
[45]
  TGI: 15.6 µM
[46]
  TGI: > 100 µM
[47]
  TGI: > 100 µM
[48]
  TGI: > 100 µM
[57]
  TGI: 24.4 µM
[49]
  TGI: > 100 µM
[50]
  TGI: 38.3 µM
[51]
  TGI: > 100 µM
[52]
  TGI: 63.6 µM
[53]
  TGI: > 100 µM
[54]
  TGI: 42.4 µM
[55]
  TGI: > 100 µM

## COC(=O)[C@]1(CCC(C)=O)C(=O)C=CN([C@H](C)c2ccccc2)[C@@H]1Cc1ccc(OC)c(OCc2ccccc2)c1I
[1]
  TGI: 34.9 µM
[2]
  TGI: 50.1 µM
[3]
  TGI: 73.5 µM
[4]
  TGI: 71.8 µM
[5]
  TGI: 46.3 µM
[6]
  TGI: > 100 µM
[7]
  TGI: > 100 µM
[8]
  TGI: 47.7 µM
[9]
  TGI: 37.5 µM
[10]
  TGI: > 100 µM
[11]
  TGI: 29.2 µM
[12]
  TGI: 27 µM
[13]
  TGI: 43.5 µM
[14]
  TGI: 69.8 µM
[56]
  TGI: 51.7 µM
[15]
  TGI: 21.3 µM
[16]
  TGI: 79.4 µM
[17]
  TGI: 31.8 µM
[18]
  TGI: 29.1 µM
[19]
  TGI: > 100 µM
[20]
  TGI: 43.1 µM
[21]
  TGI: 31 µM
[22]
  TGI: 28.2 µM
[24]
  TGI: 46.2 µM
[25]
  TGI: 35.7 µM
[26]
  TGI: 42.9 µM
[27]
  TGI: 41.3 µM
[28]
  TGI: > 100 µM
[29]
  TGI: 34.3 µM
[30]
  TGI: 49.6 µM
[31]
  TGI: 30.7 µM
[32]
  TGI: 41.6 µM
[33]
  TGI: 62.8 µM
[34]
  TGI: 31 µM
[35]
  TGI: > 100 µM
[36]
  TGI: 63.8 µM
[37]
  TGI: 85.2 µM
[38]
  TGI: 74.5 µM
[39]
  TGI: 51.7 µM
[58]
  TGI: 23.6 µM
[40]
  TGI: 38.7 µM
[41]
  TGI: 35.2 µM
[42]
  TGI: 32.9 µM
[43]
  TGI: 31.7 µM
[44]
  TGI: > 100 µM
[45]
  TGI: 26.9 µM
[46]
  TGI: > 100 µM
[47]
  TGI: 35 µM
[48]
  TGI: 81.8 µM
[57]
  TGI: > 100 µM
[49]
  TGI: > 100 µM
[50]
  TGI: 49.4 µM
[51]
  TGI: 56.8 µM
[52]
  TGI: 33.9 µM
[53]
  TGI: 32.6 µM
[54]
  TGI: 29.2 µM
[55]
  TGI: 31.6 µM

## CC(C(=O)NCNC(=O)c1ccccc1)C(=O)NCc1ccccc1 (centres undefined)
[1]
  TGI: > 100 µM
[3]
  TGI: > 100 µM
[4]
  TGI: > 100 µM
[5]
  TGI: > 100 µM
[6]
  TGI: > 100 µM
[7]
  TGI: > 100 µM
[8]
  TGI: > 100 µM
[9]
  TGI: > 100 µM
[10]
  TGI: > 100 µM
[12]
  TGI: > 100 µM
[13]
  TGI: > 100 µM
[14]
  TGI: > 100 µM
[15]
  TGI: > 100 µM
[16]
  TGI: > 100 µM
[17]
  TGI: > 100 µM
[18]
  TGI: > 100 µM
[20]
  TGI: > 100 µM
[22]
  TGI: > 100 µM
[23]
  TGI: > 100 µM
[24]
  TGI: > 100 µM
[25]
  TGI: > 100 µM
[26]
  TGI: > 100 µM
[27]
  TGI: > 100 µM
[28]
  TGI: > 100 µM
[29]
  TGI: > 100 µM
[30]
  TGI: > 100 µM
[31]
  TGI: > 100 µM
[32]
  TGI: > 100 µM
[33]
  TGI: > 100 µM
[36]
  TGI: > 100 µM
[37]
  TGI: > 100 µM
[38]
  TGI: > 100 µM
[39]
  TGI: > 100 µM
[58]
  TGI: > 100 µM
[40]
  TGI: > 100 µM
[41]
  TGI: > 100 µM
[42]
  TGI: > 100 µM
[43]
  TGI: > 100 µM
[45]
  TGI: > 100 µM
[46]
  TGI: > 100 µM
[47]
  TGI: > 100 µM
[48]
  TGI: > 100 µM
[59]
  TGI: > 100 µM
[57]
  TGI: > 100 µM
[49]
  TGI: > 100 µM
[50]
  TGI: > 100 µM
[51]
  TGI: > 100 µM
[52]
  TGI: > 100 µM
[53]
  TGI: > 100 µM
[54]
  TGI: > 100 µM
[55]
  TGI: > 100 µM
